# Assay results reported in PubChem BioAssay (NCI).
#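 Test compounds were applied to cells in 96-well plates for 48 hours at 5 doses. TGI is the concentration that stops growth completely.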
# Columns and labels:
# Test in all cases: DTP human tumour cell line panel, 48 h
# ACHN renal = tested on: ACHN renal
# HCT-116 colon = tested on: HCT-116 colon
# M19-MEL melanoma = tested on: M19-MEL melanoma
# SF-268 CNS = tested on: SF-268 CNS
# NCI-H226 lung = tested on: NCI-H226 lung
# SK-OV-3 ovarian = tested on: SK-OV-3 ovarian
# SNB-78 CNS = tested on: SNB-78 CNS
# KM12 colon = tested on: KM12 colon
# SR leukemia = tested on: SR leukemia
# LXFL 529 NSCLC = tested on: LXFL 529 NSCLC
# HL-60(TB) leukemia = tested on: HL-60(TB) leukemia
# RPMI-8226 leukemia = tested on: RPMI-8226 leukemia
# A549 NSCLC = tested on: A549 NSCLC
# SK-MEL-2 melanoma = tested on: SK-MEL-2 melanoma
# UACC-62 melanoma = tested on: UACC-62 melanoma
# OVCAR-3 ovarian = tested on: OVCAR-3 ovarian
# NCI-H522 lung = tested on: NCI-H522 lung
# A498 renal = tested on: A498 renal
# CAKI-1 renal = tested on: CAKI-1 renal
# EKVX NSCLC = tested on: EKVX NSCLC
# MOLT-4 leukemia = tested on: MOLT-4 leukemia
# KM20L2 colon = tested on: KM20L2 colon
# SK-MEL-5 melanoma = tested on: SK-MEL-5 melanoma
# DMS 114 small cell lung = tested on: DMS 114 small cell lung
# MALME-3M melanoma = tested on: MALME-3M melanoma
# COLO 205 colon = tested on: COLO 205 colon
# XF 498 CNS = tested on: XF 498 CNS
# UO-31 renal = tested on: UO-31 renal
# HT29 colon = tested on: HT29 colon
# DLD-1 colon = tested on: DLD-1 colon
# SN12C renal = tested on: SN12C renal
# U251 CNS = tested on: U251 CNS
# RXF 393 renal = tested on: RXF 393 renal
# K-562 leukemia = tested on: K-562 leukemia
# CCRF-CEM leukemia = tested on: CCRF-CEM leukemia
# UACC-257 melanoma = tested on: UACC-257 melanoma
# SK-MEL-28 melanoma = tested on: SK-MEL-28 melanoma
# 786-0 renal = tested on: 786-0 renal
# HCC-2998 colon = tested on: HCC-2998 colon
# M14 melanoma = tested on: M14 melanoma
# OVCAR-5 ovarian = tested on: OVCAR-5 ovarian
# NCI-H460 lung = tested on: NCI-H460 lung
# IGROV1 ovarian = tested on: IGROV1 ovarian
# HOP-92 NSCLC = tested on: HOP-92 NSCLC
# SF-295 CNS = tested on: SF-295 CNS
# OVCAR-4 ovarian = tested on: OVCAR-4 ovarian
# HCT-15 colon = tested on: HCT-15 colon
# SF-539 CNS = tested on: SF-539 CNS
# NCI-H23 lung = tested on: NCI-H23 lung
# OVCAR-8 ovarian = tested on: OVCAR-8 ovarian
# HOP-18 NSCLC = tested on: HOP-18 NSCLC
# HOP-62 NSCLC = tested on: HOP-62 NSCLC
# SNB-19 CNS = tested on: SNB-19 CNS
# SW-620 colon = tested on: SW-620 colon
# TK-10 renal = tested on: TK-10 renal
# DMS 273 small cell lung = tested on: DMS 273 small cell lung
# SNB-75 CNS = tested on: SNB-75 CNS
# RXF-631 renal = tested on: RXF-631 renal
# LOX IMVI melanoma = tested on: LOX IMVI melanoma
smiles,measurement,setting,value
O=[N+]([O-])c1ccc(Cc2nc3ccccc3s2)cc1,TGI,ACHN renal,> 100 µM
same,TGI,HCT-116 colon,> 100 µM
same,TGI,M19-MEL melanoma,> 100 µM
same,TGI,SF-268 CNS,> 100 µM
same,TGI,NCI-H226 lung,> 100 µM
same,TGI,SK-OV-3 ovarian,> 100 µM
same,TGI,SNB-78 CNS,> 100 µM
same,TGI,KM12 colon,> 100 µM
same,TGI,SR leukemia,> 100 µM
same,TGI,LXFL 529 NSCLC,> 100 µM
same,TGI,HL-60(TB) leukemia,> 100 µM
same,TGI,RPMI-8226 leukemia,> 100 µM
same,TGI,A549 NSCLC,> 100 µM
same,TGI,SK-MEL-2 melanoma,> 100 µM
same,TGI,UACC-62 melanoma,> 100 µM
same,TGI,OVCAR-3 ovarian,> 100 µM
same,TGI,NCI-H522 lung,> 100 µM
same,TGI,A498 renal,> 100 µM
same,TGI,CAKI-1 renal,> 100 µM
same,TGI,EKVX NSCLC,> 100 µM
same,TGI,MOLT-4 leukemia,> 100 µM
same,TGI,KM20L2 colon,> 100 µM
same,TGI,SK-MEL-5 melanoma,> 100 µM
same,TGI,DMS 114 small cell lung,> 100 µM
same,TGI,MALME-3M melanoma,> 100 µM
same,TGI,COLO 205 colon,> 100 µM
same,TGI,XF 498 CNS,> 100 µM
same,TGI,UO-31 renal,> 100 µM
same,TGI,HT29 colon,> 100 µM
same,TGI,DLD-1 colon,> 100 µM
same,TGI,SN12C renal,> 100 µM
same,TGI,U251 CNS,> 100 µM
same,TGI,RXF 393 renal,> 100 µM
same,TGI,K-562 leukemia,> 100 µM
same,TGI,CCRF-CEM leukemia,> 100 µM
same,TGI,UACC-257 melanoma,> 100 µM
same,TGI,SK-MEL-28 melanoma,> 100 µM
same,TGI,786-0 renal,> 100 µM
same,TGI,HCC-2998 colon,> 100 µM
same,TGI,M14 melanoma,> 100 µM
same,TGI,OVCAR-5 ovarian,> 100 µM
same,TGI,NCI-H460 lung,> 100 µM
same,TGI,IGROV1 ovarian,> 100 µM
same,TGI,HOP-92 NSCLC,> 100 µM
same,TGI,SF-295 CNS,> 100 µM
same,TGI,OVCAR-4 ovarian,> 100 µM
same,TGI,HCT-15 colon,> 100 µM
same,TGI,SF-539 CNS,70.4 µM
same,TGI,NCI-H23 lung,> 100 µM
same,TGI,OVCAR-8 ovarian,> 100 µM
same,TGI,HOP-18 NSCLC,> 100 µM
same,TGI,HOP-62 NSCLC,> 100 µM
same,TGI,SNB-19 CNS,> 100 µM
same,TGI,SW-620 colon,> 100 µM
same,TGI,TK-10 renal,> 100 µM
same,TGI,DMS 273 small cell lung,> 100 µM
same,TGI,SNB-75 CNS,> 100 µM
O=C1CCC(c2nc3ccccc3o2)C(=O)N1 (stereo not drawn),TGI,ACHN renal,> 100 µM
same,TGI,HCT-116 colon,> 100 µM
same,TGI,M19-MEL melanoma,> 100 µM
same,TGI,SF-268 CNS,> 100 µM
same,TGI,NCI-H226 lung,> 100 µM
same,TGI,SK-OV-3 ovarian,> 100 µM
same,TGI,SNB-78 CNS,> 100 µM
same,TGI,KM12 colon,> 100 µM
same,TGI,SR leukemia,> 100 µM
same,TGI,LXFL 529 NSCLC,> 100 µM
same,TGI,HL-60(TB) leukemia,> 100 µM
same,TGI,A549 NSCLC,> 100 µM
same,TGI,SK-MEL-2 melanoma,> 100 µM
same,TGI,UACC-62 melanoma,> 100 µM
same,TGI,OVCAR-3 ovarian,> 100 µM
same,TGI,NCI-H522 lung,> 100 µM
same,TGI,A498 renal,> 100 µM
same,TGI,CAKI-1 renal,> 100 µM
same,TGI,EKVX NSCLC,> 100 µM
same,TGI,MOLT-4 leukemia,> 100 µM
same,TGI,KM20L2 colon,> 100 µM
same,TGI,SK-MEL-5 melanoma,> 100 µM
same,TGI,DMS 114 small cell lung,> 100 µM
same,TGI,MALME-3M melanoma,> 100 µM
same,TGI,COLO 205 colon,> 100 µM
same,TGI,UO-31 renal,> 100 µM
same,TGI,HT29 colon,> 100 µM
same,TGI,DLD-1 colon,> 100 µM
same,TGI,SN12C renal,> 100 µM
same,TGI,U251 CNS,> 100 µM
same,TGI,RXF 393 renal,> 100 µM
same,TGI,K-562 leukemia,> 100 µM
same,TGI,CCRF-CEM leukemia,> 100 µM
same,TGI,UACC-257 melanoma,> 100 µM
same,TGI,SK-MEL-28 melanoma,> 100 µM
same,TGI,786-0 renal,> 100 µM
same,TGI,HCC-2998 colon,> 100 µM
same,TGI,M14 melanoma,> 100 µM
same,TGI,NCI-H460 lung,> 100 µM
same,TGI,IGROV1 ovarian,> 100 µM
same,TGI,HOP-92 NSCLC,> 100 µM
same,TGI,SF-295 CNS,> 100 µM
same,TGI,OVCAR-4 ovarian,> 100 µM
same,TGI,HCT-15 colon,> 100 µM
same,TGI,SF-539 CNS,> 100 µM
same,TGI,NCI-H23 lung,> 100 µM
same,TGI,OVCAR-8 ovarian,> 100 µM
same,TGI,HOP-18 NSCLC,> 100 µM
same,TGI,HOP-62 NSCLC,> 100 µM
same,TGI,SNB-19 CNS,> 100 µM
same,TGI,SW-620 colon,> 100 µM
same,TGI,RXF-631 renal,> 100 µM
same,TGI,TK-10 renal,> 100 µM
same,TGI,DMS 273 small cell lung,> 100 µM
same,TGI,LOX IMVI melanoma,> 100 µM
same,TGI,SNB-75 CNS,> 100 µM
